Data from patent publication US20110166059A1, “MEANS AND METHODS FOR EVALUATING A THERAPY WITH A P38 MAP KINASE INHIBITOR” (priority 2008, published 2011).

Columns and labels:
TNF, IL-6 or IL-10 = conditions: human volunteers, control group increased after about 2-4 hours; oral inhibitor; cited from earlier work
[1] = system: LPS-stimulated human monocytes; test: Microarray gene expression profile of long-term LPS-stimulated monocytes in the presence of kinase inhibitors; format: cell-based; conditions: for late-stage LPS-induced gene expression change (principal component analysis, FIG. 4): long-term (16 hours) LPS-treated monocytes, 100 ng/ml LPS, inhibitor 10 μM
Method: (§1) Monocytes were isolated from pooled human buffy coats by Ficoll-Paque and subsequent Percoll (Pharmacia, Freiburg, Germany) density-gradient centrifugation to greater than 90% purity. Monocytes were cultured (1×10^6 cells/nil) in hydrophobic Teflon bags (Hereus, Hanau, Germany) in McCoy's 5a medium (Biochrom, Berlin, Germany) supplemented with 15% FCS, 2 mM L-glutamine, 200 IU penicillin, 100 μg/ml streptomycin and 1× NEAA (all from Biochrom, Berlin, Germany) and allowed to rest for 18 h prior to stimulation. Monocytes were exposed for 4 and 16 hours to 100 ng/ml LPS in the absence or presence of 10 μM PD98059, 10 μM GF109203X or 10 μm SB202190, respectively, or were left untreated
Total cellular RNA was isolated from 3 independent experiments with untreated and LPS-stimulated human monocytes in the absence or presence of pharmacological kinase inhibitors (RNeasy kit; Qiagen, Hilden, Germany). RNA preparation, samples preparation and hybridization to Affymetrix Human Genome 133 A Gene Chip arrays were performed according to the manufacturer's instructions (Affymetrix, Santa Clara, Calif.).
Ten micrograms of fragmented cRNA was, together with control cRNAs and grid alignment oligonucleotides, hybridized for 16 hours under constant rotation at 45° C. to Affymetrix Human Genome 133 A Gene Chip arrays (Affymetrix). Arrays were washed and stained using the Gene Chip Fluidics Station 400 (Affymetrix). Fluorescent signals were detected by the HP G2500A Gene Array Scanner (Affymetrix).
Data were processed by MicroArray Suite (MAS) Software 5.0 (Affymetrix). Signals were scaled to a target intensity of 100 and log transformed. The algorithm applied in the MAS 5.0 software assigned individual average background values to each cell intensity and subtracted it from single raw cell intensities Single raw values were calculated for each probe set (i.e., transcript from the median of discrimination values and their significance was assessed by using a one-sided Wilcoxon rank test).
While the MAS 5.0 software only allows comparison of 2 individuals data sets, we further studied the Affymetrix intensity files with the Expressionist Suite software package (GeneData, Basel, Switzerland) for a more sophisticated statistical analysis. […] The software package includes the Expressionist Refiner v3.0.4 which permits a global chip quality control with detection and masking of outliers and array defects, fluorescence gradient correction, and variance regularization. For final identification of significant gene expression difference we used Expressionist Analyst v4.0.5. First, data were normalized to a logarithmic mean of 180 in all experiments. […] Finally, n-fold changes were determined and screened for their significance by applying a t test. […]

[2] = system: promoter regions of LPS-regulated proinflammatory genes (VCAM, IL8, DUSP1, TNF, MYC) in monocytes; test: Chromatin immunoprecipitation (ChIP) of histone acetylation and methylation at promoters of pro-inflammatory genes in LPS-treated monocytes; format: cell-based, human; conditions: long-term (16 h) LPS treatment, ongoing inhibition of p38 MAP kinase; FIGS. 8 and 10
Method: as §1
After stimulation, monocytes were formalin-fixed, washed, lysed, and sonicated. DNA-protein complexes were immunoprecipitated with polyclonal histone-antibodies against H3K4 (abcam, Cambridge, UK), H3K79 and AcH4 (both upstate, Lake Placid, N.Y.). […] PCR products were processed by using the QuantiTect SYBR Green PCR kit to perform quantitative RT-PCRs employing the ABI PRISM 7900 (Applied Biosystems).

| Compound | increase in cytokines such as TNF, IL-6 or IL-10 after LPS administration (TNF, IL-6 or IL-10) | late-stage LPS-induced gene expression change (principal component analysis, FIG. 4) [1] | down-regulation of inflammatory response genes in the late stage of LPS-signaling ([1]; human monocytes, 16 hours 100 ng/ml LPS, 10 μm SB202190) | acetylation of H4 (AcH4) at pro-inflammatory genes [2] |
| --- | --- | --- | --- | --- |
| Cc1ccc(-n2nc(C(C)(C)C)cc2NC(=O)Nc2ccc(OCCN3CCOCC3)c3ccccc23)cc1 [BIRB 796 BS, 1-(5-tert-butyl-2-p-tolyl-2H-pyrazol-3-yl)-3-[4-(2-morpholin-4-yl-ethoxy)-naphthalen-1-yl]-urea] | did not show a significant increase in these cytokines | – | – | – |
| CN(C)CCCn1cc(C2=C(c3c[nH]c4ccccc34)C(=O)NC2=O)c2ccccc21 [GF109203X] | – | did not significantly change gene expression | – | – |
| COc1cccc(-c2cc(=O)c3ccccc3o2)c1N [PD98059] | – | did not significantly change gene expression | – | – |
| Oc1ccc(-c2nc(-c3ccncc3)c(-c3ccc(F)cc3)[nH]2)cc1 [SB202190, 4-(4-fluorophenyl)-2-2(4-hydroxyphenyl)-5-(4-pyridyl)-imidazole] | – | changed significantly | reversed the down-regulation of inflammatory response genes | sustained high acetylation of H4 (AcH4) |
